According to patent US7199129B2, “Derivatives of morphine-like opioid compounds” (Monash University, priority 2001, dated 2007):
Where “and” joins values, the source holds several entries; their conditions need not be identical. Identical values can stand only once. Entries after “also recorded” stand apart in the source; their conditions may differ.

Experiments:
[1] = biological target: T1, human κ-opiate receptor (Homo sapiens, UniProt P41145); assay: In vitro opiate receptor radioligand binding assay, κ; settings: test compound 10 μM
T1 construct: purchased MDS Pharma Services 260210
Procedure: (§1) To characterise the target specificity of the compounds, KRS-5-150 and KRS-6-26 were tested at a concentration of 10 μM for their ability to inhibit the binding of a radioligand to human δ-, κ-, or μ-opiate receptors in vitro using commercially available assays (MDS Pharma Services; assay catalogue numbers 260110, 260210 and 260410 respectively).
(§2) Percentage inhibition of radioligand binding to human opioid receptors in vitro by test compounds (10 μM)

[2] = biological target: T2, human δ-opiate receptor (Homo sapiens, UniProt P41143); assay: In vitro opiate receptor radioligand binding assay, δ; settings: test compound 10 μM
T2 construct: purchased MDS Pharma Services 260110
Procedure: as §1, §2

[3] = system: ICR mice; assay: Phenylquinone-induced writhing model in mice (Example 16); format: in vivo; settings: IP; for No. of Writhings Individual: individual mice
Procedure: KRS-5-150 was evaluated for possible analgesic activity in the phenylquinone-induced writhing model in mice (Siegmund et al, 1957). A serial 2-fold dosage variance was used in the test, from 128 mg/kg to 1 mg/kg (8 doses in total). Groups of 3 male or female ICR mice weighing 22±2 g were employed. A serial 2-fold dosage variance was used in the test (8 doses in total). Variant doses (1, 2, 4, 8, 16, 32, 64 and 128 mg/kg) of test substances were administered intraperitoneally (IP). A vehicle of 2% Tween 80 in 0.9% NaCl was used for the intraperitoneal injection. The control group received vehicle alone. […] A reduction in the number of writhes by 50 percent or more (≧50%) relative to the vehicle-treated group indicated possible analgesic activity.

[4] = system: ICR-derived mice; assay: Phenylquinone-induced writhing assay in mice, IP and oral (Example 17); format: in vivo; settings: for % Inhibition / Number of Writhings Average / Number of Writhings Individual: Table 2; for Number of Writhings Individual: individual mice; for Died (mortality, animals of group of 3): within 30 minutes after administration
Procedure: Further testing on compound KRS-5–150 was carried out under contract by MDS Pharma Services—Taiwan Ltd. The study was designed to evaluate the effects of the compound as an analgesic in the phenylquinone-induced writhing assay, which was described in the previous example, and in the radiant heat-induced tail-flick response assay in mice (D'Amour et al., 1941).
For the phenylquinone writhing test, groups of three male or female ICR-derived mice weighing 22±2 g were used. For the phenylquinone writhing test, KRS-5-150 at doses of 1, 2, 4, 8, 16, 32, 64 and 128 mg/kg in either 2% Tween 80/0.9% NaCl or in 2% Tween 80 was used for intraperitoneal administration, or at doses of 1, 2, 4, 8, 16, 32 or 64 mg/kg in the same vehicles for oral administration. Control animals received vehicle alone. […] A reduction in the number of writhes by 50% or more (≧50%) relative to the vehicle-treated group indicated possible analgesic activity.

[5] = system: ICR mice; assay: Straub tail behaviour (indicator of CNS activity) and observed signs in test animals
Description: The Straub test is an indicator of CNS activity.
The tail-flick test is thought to involve central nervous system activity, and therefore provides further confirmation of the Straub tail test.

T2 sequence (P41143 whole entry): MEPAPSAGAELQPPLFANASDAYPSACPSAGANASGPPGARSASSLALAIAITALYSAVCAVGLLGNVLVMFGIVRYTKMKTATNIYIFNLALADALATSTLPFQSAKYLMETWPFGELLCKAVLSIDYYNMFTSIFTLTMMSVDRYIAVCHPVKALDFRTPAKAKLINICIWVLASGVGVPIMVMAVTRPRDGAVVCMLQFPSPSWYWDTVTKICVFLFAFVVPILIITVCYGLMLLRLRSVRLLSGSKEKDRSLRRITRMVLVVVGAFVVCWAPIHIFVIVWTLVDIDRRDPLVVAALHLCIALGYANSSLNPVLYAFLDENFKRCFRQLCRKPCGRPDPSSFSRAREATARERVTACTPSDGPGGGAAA
T1 sequence (P41145 whole entry): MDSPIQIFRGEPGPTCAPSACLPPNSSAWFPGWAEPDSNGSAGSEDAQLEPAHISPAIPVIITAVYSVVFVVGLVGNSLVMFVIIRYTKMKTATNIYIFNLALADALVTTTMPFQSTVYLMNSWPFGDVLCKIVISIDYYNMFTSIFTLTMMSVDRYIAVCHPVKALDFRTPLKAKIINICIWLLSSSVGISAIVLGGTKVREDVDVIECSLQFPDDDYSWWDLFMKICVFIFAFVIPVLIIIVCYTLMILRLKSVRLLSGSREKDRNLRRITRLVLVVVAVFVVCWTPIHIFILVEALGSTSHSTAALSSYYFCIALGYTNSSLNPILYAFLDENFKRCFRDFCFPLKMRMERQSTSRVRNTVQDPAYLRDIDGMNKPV

For `Oc1ccc2c3c1O[C@H]1[C@@H](O)C=C[C@H]4[C@@H](C2)N(CCCNC(=Nc2ccccc2)Nc2ccccc2)CC[C@@]341` [KRS-5-150, (5α,6α)-7,8 didehydro-4,5-epoxy-17-(N,N′-bisphenylcarboxamidino-3-aminopropyl)morphinan,3,6-diol], the “Percentage inhibition of radioligand binding, κ-opiate receptor” value [1] was 79%, the “Percentage inhibition of radioligand binding, δ-opiate receptor” value [2] was 79% and the “% Inhibition” value ([3]; 1 mg/kg, Table 1) was 33%. For the same compound, the “No. of Writhings Average” value ([3]; 1 mg/kg, Table 1) was 10, the “No. of Writhings Individual” value ([3]; 1 mg/kg, Table 1) was 14 and 0 and 16 and the “% Inhibition” value ([3]; 2 mg/kg, Table 1) was 73%. For the same compound, the “No. of Writhings Average” value ([3]; 2 mg/kg, Table 1) was 4, the “No. of Writhings Individual” value ([3]; 2 mg/kg, Table 1) was 8 and 1 and 4 and the “% Inhibition” value ([3]; 4 mg/kg, Table 1) was 80%. The “No. of Writhings Average” value ([3]; 4 mg/kg, Table 1) was 3, the “No. of Writhings Individual” value ([3]; 4 mg/kg, Table 1) was 0 and 7 and 3 and the “% Inhibition” value ([3]; 8 mg/kg, Table 1) was 87%. For the same compound, the “No. of Writhings Average” value ([3]; 8 mg/kg, Table 1) was 2, the “No. of Writhings Individual” value ([3]; 8 mg/kg, Table 1) was 4 and 0 and 2 and the “% Inhibition” value ([3]; 16 mg/kg, Table 1) was 80%. The “No. of Writhings Average” value ([3]; 16 mg/kg, Table 1) was 3, the “No. of Writhings Individual” value ([3]; 16 mg/kg, Table 1) was 0 and 4 and 5 and the “% Inhibition” value ([3]; 32 mg/kg, Table 1) was 100%. The “No. of Writhings Average” value ([3]; 32 mg/kg, Table 1) was 0, the “No. of Writhings Individual” value ([3]; 32 mg/kg, Table 1) was 0 (2×) and 1 and the “% Inhibition” value ([3]; 64 mg/kg, Table 1) was 100%. The “No. of Writhings Average” value ([3]; 64 mg/kg, Table 1) was 0, the “No. of Writhings Individual” value ([3]; 64 mg/kg, Table 1) was 0 and the “died (animals of group of 3)” value ([3]; 128 mg/kg, Table 1) was 2/3 died. For the same compound, the “No. of Writhings Individual” value ([3]; 128 mg/kg, Table 1) was 0, the “analgesic activity (≧50% reduction in writhes)” value ([3]; doses of 64, 32, 16, 8, 4 and 2 mg/kg) was “Significant activity” and the “% Inhibition” value ([4]; IP, 1 mg/kg) was 13%. The “Number of Writhings Average” value ([4]; IP, 1 mg/kg) was 14, the “Number of Writhings Individual” value ([4]; IP, 1 mg/kg) was 16 and 13 and 14 and the “% Inhibition” value ([4]; IP, 2 mg/kg) was 31%. The “Number of Writhings Average” value ([4]; IP, 2 mg/kg) was 11, the “Number of Writhings Individual” value ([4]; IP, 2 mg/kg) was 13 and 11 and 8 and the “% Inhibition” value ([4]; IP, 4 mg/kg) was “(56) %”. For the same compound, the “Number of Writhings Average” value ([4]; IP, 4 mg/kg) was 7, the “Number of Writhings Individual” value ([4]; IP, 4 mg/kg) was 2 and 11 and 8 and the “% Inhibition” value ([4]; IP, 8 mg/kg) was “(88) %”. For the same compound, the “Number of Writhings Average” value ([4]; IP, 8 mg/kg) was 2, the “Number of Writhings Individual” value ([4]; IP, 8 mg/kg) was 0 and 4 and 2 and the “% Inhibition” value ([4]; IP, 16 mg/kg) was “(69) %”. For the same compound, the “Number of Writhings Average” value ([4]; IP, 16 mg/kg) was 5, the “Number of Writhings Individual” value ([4]; IP, 16 mg/kg) was 4 and 2 and 9 and the “% Inhibition” value ([4]; IP, 32 mg/kg) was “(100) %”. The “Number of Writhings Average” value ([4]; IP, 32 mg/kg) was 0, the “Number of Writhings Individual” value ([4]; IP, 32 mg/kg) was 0 and the “Number of Writhings Individual” value ([4]; IP, 64 mg/kg) was “Died and 0 (2×)”. The “Died (mortality, animals of group of 3)” value ([4]; IP, 64 mg/kg, 64 mg/kg) was 1 of 3 and ⅓ and 1/3 Died, the “Number of Writhings Individual” value ([4]; IP, 128 mg/kg) was 0 and Died (2×) and the “Died (mortality, animals of group of 3)” value ([4]; IP, 128 mg/kg, 128 mg/kg) was 2 of 3 and ⅔ and 2/3 Died. The “analgesic activity in writhing test” value ([4]; given IP) was “active”, the “analgesic activity (≧50% reduction in writhes)” value ([4]; intraperitoneal, doses of 4, 8, 16 and 32 mg/kg) was “Significant activity” and the “analgesic activity (≧50% reduction in writhes)” value ([4]; oral administration, 1 to 64 mg/kg) was “not when given orally; also recorded: not after oral administration”. The “% Inhibition” value ([4]; oral, 1 mg/kg) was 0%, the “Number of Writhings Average” value ([4]; oral, 1 mg/kg) was 16 and the “Number of Writhings Individual” value ([4]; oral, 1 mg/kg) was 25 and 8 and 14. For the same compound, the “% Inhibition” value ([4]; oral, 2 mg/kg) was 0%, the “Number of Writhings Average” value ([4]; oral, 2 mg/kg) was 14 and the “Number of Writhings Individual” value ([4]; oral, 2 mg/kg) was 9 and 21 and 11. The “% Inhibition” value ([4]; oral, 4 mg/kg) was 0%, the “Number of Writhings Average” value ([4]; oral, 4 mg/kg) was 14 and the “Number of Writhings Individual” value ([4]; oral, 4 mg/kg) was 9 and 15 and 17. The “% Inhibition” value ([4]; oral, 8 mg/kg) was 0%, the “Number of Writhings Average” value ([4]; oral, 8 mg/kg) was 15 and the “Number of Writhings Individual” value ([4]; oral, 8 mg/kg) was 17 and 21 and 6. The “% Inhibition” value ([4]; oral, 16 mg/kg) was 0%, the “Number of Writhings Average” value ([4]; oral, 16 mg/kg) was 14 and the “Number of Writhings Individual” value ([4]; oral, 16 mg/kg) was 6 and 17 and 18. For the same compound, the “% Inhibition” value ([4]; oral, 32 mg/kg) was 0%, the “Number of Writhings Average” value ([4]; oral, 32 mg/kg) was 15 and the “Number of Writhings Individual” value ([4]; oral, 32 mg/kg) was 12 and 14 and 18. The “% Inhibition” value ([4]; oral, 64 mg/kg) was 14%, the “Number of Writhings Average” value ([4]; oral, 64 mg/kg) was 12 and the “Number of Writhings Individual” value ([4]; oral, 64 mg/kg) was 12 and 5 and 18. The “test animals exhibiting an increase in respiratory depth” value ([5]; 128 mg/kg IP, Example 17) was 3 of 3, the “test animals exhibiting slight anoxia” value ([5]; 128 mg/kg IP, Example 17) was 3 of 3 and the “test animals exhibiting slight tremors” value ([5]; 128 mg/kg IP, Example 17) was 3 of 3. For the same compound, the Straub tail behaviour ([5]; Example 17 (writhing and tail-flick studies)) was “None of the mice given KRS-5-150 exhibited Straub tail behaviour” and the Straub tail behaviour ([5]; IP, 2 to 64 mg/kg, Example 16) was “did not exhibit Straub tail behaviour”.
